Results on 17 compounds are retold here after patent US7871999B2, “Substituted thiazoles and their use for producing drugs” (Gruenenthal GmbH, priority 2005, dated 2011).

What is called IC50 is the concentration that gives 50% inhibition. Broadly, the inhibition is the percentage by which the read-out fell short of the control. A higher inhibition goes with strong suppression.

T1 sequence (I3LUI7 1-1212): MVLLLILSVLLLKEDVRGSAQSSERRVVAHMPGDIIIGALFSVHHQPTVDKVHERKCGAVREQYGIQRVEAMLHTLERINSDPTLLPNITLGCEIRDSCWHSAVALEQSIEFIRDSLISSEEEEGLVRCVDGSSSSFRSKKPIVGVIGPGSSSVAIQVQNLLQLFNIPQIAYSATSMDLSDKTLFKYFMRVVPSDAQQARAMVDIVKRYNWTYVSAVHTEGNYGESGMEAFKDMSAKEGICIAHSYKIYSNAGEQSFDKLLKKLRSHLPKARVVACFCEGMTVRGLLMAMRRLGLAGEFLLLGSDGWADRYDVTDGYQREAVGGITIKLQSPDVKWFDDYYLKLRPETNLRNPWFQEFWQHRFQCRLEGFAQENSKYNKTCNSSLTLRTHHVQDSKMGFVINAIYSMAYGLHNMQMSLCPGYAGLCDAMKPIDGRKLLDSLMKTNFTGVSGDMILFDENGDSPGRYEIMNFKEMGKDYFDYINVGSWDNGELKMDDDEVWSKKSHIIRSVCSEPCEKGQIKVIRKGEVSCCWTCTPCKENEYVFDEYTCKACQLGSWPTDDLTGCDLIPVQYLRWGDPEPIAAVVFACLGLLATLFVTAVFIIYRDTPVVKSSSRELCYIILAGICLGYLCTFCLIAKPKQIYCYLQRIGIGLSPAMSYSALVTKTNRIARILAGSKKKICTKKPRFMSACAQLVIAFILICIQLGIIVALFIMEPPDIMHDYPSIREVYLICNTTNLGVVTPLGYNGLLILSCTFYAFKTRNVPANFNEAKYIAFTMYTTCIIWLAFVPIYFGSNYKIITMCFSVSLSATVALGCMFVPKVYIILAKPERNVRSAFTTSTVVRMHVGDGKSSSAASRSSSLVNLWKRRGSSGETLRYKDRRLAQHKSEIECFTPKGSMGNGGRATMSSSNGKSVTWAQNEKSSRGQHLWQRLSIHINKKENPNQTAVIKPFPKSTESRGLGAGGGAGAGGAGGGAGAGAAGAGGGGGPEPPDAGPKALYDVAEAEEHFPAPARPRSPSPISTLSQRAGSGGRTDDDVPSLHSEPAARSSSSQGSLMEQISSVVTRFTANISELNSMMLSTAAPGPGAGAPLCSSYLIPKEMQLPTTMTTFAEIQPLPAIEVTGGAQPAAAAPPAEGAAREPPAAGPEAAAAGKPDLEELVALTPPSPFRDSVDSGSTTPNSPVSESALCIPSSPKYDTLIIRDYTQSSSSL

The first test has as its target T1, mGluR5 receptor (Sus scrofa, UniProt I3LUI7).
T1 construct: pig brain hemispheres without medulla, cerebellum and pons ... differential centrifugation at 900×g and 40,000×g
Kind of test: Inhibition of [^3H]-MPEP binding in the mGluR5 receptor binding assay (pig brain homogenate). The note with it: 5 nM [^3H]-MPEP. The procedure: I. Method for Determining the Inhibition of [^3H]-MPEP Binding in the mGluR5 Receptor Binding Assay […]
The batches are then filtered with the assistance of a Brandel Cell Harvester (Brandel, Robotic 9600 model) on Unifilter plates with glass filter mats (Perkin Elmer, order number 6005177) and then washed 3 times with buffer (as above) using 250 μl per sample. The filter plates are then dried for 60 min at 55° C. Then 30 μl of Ultima Gold™ scintillating material (Packard BioScience, order number 6013159) is added per well and after 3 hours the samples are measured using the β counter (Microbeta, Perkin Elmer). Nonspecific binding is determined by the addition of 10 μM MPEP (Tocris, order number 1212).
Regarding `CCN(CCNC(=O)C#Cc1cccc(Cl)c1)c1nccs1` [Example 41, 3-(3-Chlorophenyl)-N-(2-(ethyl(thiazol-2-yl)amino)ethyl)propiolamide], the IC50 is 4.1 nM. On the same count and under the same terms, under `CN(CCNC(=O)C#Cc1cccc(Cl)c1)c1ncc(C#N)s1` [Example 42, 3-(3-chlorophenyl)-N-(2-((5-cyanothiazol-2-yl)(methyl)amino)ethyl)propiolamide] stands 220 nM; under `Cc1cnc(N(C)CCNC(=O)C#Cc2cccc(Cl)c2)s1` [Example 30, 3-(3-Chlorophenyl)-N-(2-(methyl(5-methylthiazol-2-yl)amino)ethyl)propiolamide], 77 nM.

Compound `CN(CCNC(=O)C#Cc1cccc(Cl)c1)c1nc2ccccc2s1` [Example 24, N-(2-(benzo[d]thiazol-2-yl(methyl)amino)ethyl)-3-(3-chlorophenyl)-propiolamide] showed an IC50 of 2780 nM. Still for that read-out and setting: in the case of `CN(CCNC(=O)C#Cc1cccc(Cl)c1)c1ncc(F)s1` [Example 126, 3-(3-Chlorophenyl)-N-(2-((5-fluorothiazol-2-yl)(methyl)amino)ethyl)propiolamide] it was 16 nM.

`CN(C(=O)C#Cc1ccccc1)C1CN(c2nccs2)C1` [Example 20, N-methyl-N-(1-(thiazol-2-yl)azetidin-3-yl)-3-phenylpropiolamide] displayed an IC50 of 280 nM. Same read-out and setting: under `CN(CC(=O)N(C)c1nccs1)C(=O)C#Cc1ccccc1` [Example 14, N-Methyl-N-(2-(methyl(thiazol-2-yl)amino)-2-oxoethyl)-3-phenylpropiolamide] stands 4970 nM; under `O=C(C#Cc1ccccc1)NCCNc1nccs1` [Example 5, N-(2-((thiazol-2-yl)amino)ethyl)-3-phenylpropiolamide], 1580 nM.

The test is the same for the next values; noted with them: 1 μM test compound, 5 nM [^3H]-MPEP.
As for `COc1cccc(C#CC(=O)NC2CCN(c3nc(C)cs3)C2)c1` (centres unmarked) [Example 46, 3-(3-methoxyphenyl)-N-(1-(4-methylthiazol-2-yl)pyrrolidin-3-yl)propiolamide], the inhibition at 1 µM stood at 48%. Still for that read-out and setting: under `Cc1ccc(C#CC(=O)NC2CCN(c3nc(C(C)(C)C)cs3)C2)cc1` (centres unmarked) [Example 56, N-(1-(4-tert.-butylthiazol-2-yl)pyrrolidin-3-yl)-3-p-tolylpropiolamide] stands 37%. `Cc1cccc(C#CC(=O)NC2CCN(c3nc(C(C)(C)C)cs3)C2)c1` (centres unmarked) [Example 99, N-(1-(4-tert.-butylthiazol-2-yl)pyrrolidin-3-yl)-3-m-tolylpropiolamide] displayed an inhibition at 1 µM of 46%. Still for that read-out and setting: in the case of `COc1cccc(C#CC(=O)NC2CCN(c3ncc(C)s3)C2)c1` (centres unmarked) [Example 78, 3-(3-methoxyphenyl)-N-(1-(5-methylthiazol-2-yl)pyrrolidin-3-yl)propiolamide] it was 26%; in that of `Cc1nc(N2CCC(NC(=O)C#Cc3cccc(C(F)(F)F)c3)C2)sc1C` (centres unmarked) [Example 85, N-(1-(4,5-dimethylthiazol-2-yl)pyrrolidin-3-yl)-3-(3-(trifluoromethyl)phenyl)-propiolamide], 41%. Same read-out and setting: in the case of `Cc1csc(N2CCC(NC(=O)C#Cc3ccccc3F)C2)n1` (centres unmarked) [Example 70, 3-(2-fluorophenyl)-N-(1-(4-methylthiazol-2-yl)pyrrolidin-3-yl)propiolamide] it was 50%.

The same test, now with this note: 10 μM test compound, 5 nM [^3H]-MPEP.
Compound `Cc1cnc(N2CCC(NC(=O)C#Cc3cccs3)C2)s1` (centres unmarked) [Example 113, N-(1-(5-methylthiazol-2-yl)pyrrolidin-3-yl)-3-(thiophen-2-yl)propiolamide] displayed an inhibition at 10 µM of 22%. Still for that read-out and setting: under `Cc1csc(N2CCC(NC(=O)C#Cc3cccc(Cl)c3)C2)n1` (centres unmarked) [Example 105, 3-(3-chlorophenyl)-N-(1-(4-methylthiazol-2-yl)pyrrolidin-3-yl)propiolamide] stands 83%; under `Cc1nc(N2CCC(NC(=O)C#Cc3cccc(Cl)c3)C2)sc1C` (centres unmarked) [Example 110, 3-(3-chlorophenyl)-N-(1-(4,5-dimethylthiazol-2-yl)pyrrolidin-3-yl)propiolamide], 63%.
